Among the data in patent US11384099B2, “Pyrazolopyridinone compounds” (Janssen Pharmaceutica NV, priority 2017, dated 2022) are IC50 values, retold here.

Molecules are shown by their SMILES.

Test [1] deals with NIH/3T3 cells transfected with control vector (MOCK). Nature of the test: NIH/3T3 mock cell proliferation assay (CTG, counter assay). Format: cell-based. To be noted: Mus musculus, NIH3T3; 72-hr incubation, CellTiter Glo; counter assay for general toxicity. Here is the method:
NIH/3T3 Mock Cell Proliferation Assay
In day 1, 90 μL of cell suspension (NIH/3T3 cells transfected with the same control vector as in the above two proliferation assays) (total 30,000 cells per well in growth medium (DMEM containing 1% Glutamax, 10% FBS and 1% Pen/Strep)) was seeded in a 96-well plate and then incubated overnight at 37° C. and 5% CO2. In day 2, 10 μL of growth medium containing 10-fold stock solution of testing compound was added into cell cultures (9 dose points with 3× serial dilution, starting with 30 μM, 0.3% DMSO final). After 72-hr incubation at 37° C. and 5% CO2, in day 5 a volume of 50 μL CellTiter Glo (CTG) reagent was added into cell-containing 96-well plate and the plate was incubated at room temperature for 10 minutes before RLUs (relative light unit) were measured on a microplate reader with luminescence detection module. The RLU value was normalized to survival % and concentration-response curve was plotted using Prism to calculate IC50 (M), pIC50 (−log IC50) and HillSlope value.
On the technique in general: Cellular ATP, detected with luciferase, serves as a proxy for viable cell number.

For test [2], the target named is T1, human FGFR3 V555M enzyme (cytoplasmic domain carrying V555M mutation) (Homo sapiens, UniProt P22607, V555M).
T1 construct: cytoplasmic domain carrying V555M mutation, from Carna Biosciences; purchased Carna Biosciences
Briefly: FGFR3 V555M mobility shift assay (enzymatic assay, Caliper). The format is biochemical. To be noted: 30 μM ATP, 45 minutes at 30° C. Here is the method:
FGFR3 V555M Mobility Shift Assay (Enzymatic Assay)
In a final reaction volume of 25 μL, 0.04 ng/μL human FGFR3 V555M enzyme (cytoplasmic domain carrying V555M mutation, from Carna Biosciences) was incubated with 30 μM ATP, 1 μM FL-peptide 30 substrate and 250 nL of testing compound (1% DMSO final) in assay buffer (100 mM HEPES pH 7.4, 10 mM MgCl2, 0.003% Brij35, 1 mM DTT). After incubation for 45 minutes at 30° C. the reaction was stopped with 10 μL of 0.5M EDTA pH 8.0, and then L of reaction mixture was transferred to reading plate and measured on Caliper EZ reader II.

Test [3] has as its target T2, human FGFR3 wild type enzyme (cytoplasmic domain) (Homo sapiens, UniProt P22607).
T2 construct: human FGFR3 wild type enzyme (cytoplasmic domain, from Cama Biosciences); purchased Carna Biosciences
Nature of the test: FGFR3 wild type mobility shift assay (enzymatic assay, Caliper). Format: biochemical. To be noted: 75 μM ATP, 50 minutes at 30° C. As for the experimental part: FGFR3 Wild Type Mobility Shift Assay (Enzymatic Assay)
In a final reaction volume of 25 μL, 0.04 ng/μL human FGFR3 wild type enzyme (cytoplasmic domain, from Cama Biosciences) was incubated with 75 μM ATP, 1 μM FL-peptide 30 substrate and 250 nL of testing compound (1% DMSO final) in assay buffer (100 mM HEPES pH 7.4, 10 mM MgCl2, 0.003% Brij35, 1 mM DTT). After incubation for 50 minutes at 30° C. the reaction was stopped with 10 μL of 0.5M EDTA pH 8.0, and then L of reaction mixture was transferred to reading plate and measured on Caliper EZ reader II.

T2 sequence (P22607 397-806 limits assumed): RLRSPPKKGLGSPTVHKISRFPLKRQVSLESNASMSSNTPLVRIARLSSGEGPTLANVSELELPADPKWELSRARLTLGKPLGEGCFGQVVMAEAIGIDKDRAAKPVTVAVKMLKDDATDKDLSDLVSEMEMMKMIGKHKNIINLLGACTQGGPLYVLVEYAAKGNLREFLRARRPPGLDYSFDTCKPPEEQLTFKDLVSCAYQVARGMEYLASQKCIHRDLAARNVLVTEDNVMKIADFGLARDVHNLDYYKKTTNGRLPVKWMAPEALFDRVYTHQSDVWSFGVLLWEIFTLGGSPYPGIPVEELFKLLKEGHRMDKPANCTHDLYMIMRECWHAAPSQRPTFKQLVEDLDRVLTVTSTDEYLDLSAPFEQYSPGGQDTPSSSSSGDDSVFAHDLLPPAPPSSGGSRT
T1 sequence (P22607 397-806 V555M limits assumed): as the sequence (P22607 397-806 limits assumed) above, with V159M counted along it

In the case of `CC(C)[C@H](Nc1c(-c2nc3ccc(C(=O)N(C)C)cc3[nH]2)c(=O)[nH]c2cn(C)nc12)c1ncccn1` (single isomer, unassigned) [Compound 10, (S*)—N,N-dimethyl-2-(2-methyl-7-((2-methyl-1-(pyrimidin-2-yl)propyl)amino)-5-oxo-4,5-dihydro-2H-pyrazolo[4,3-b]pyridin-6-yl)-1H-benzo[d]imidazole-6-carboxamide], the IC50 (usually the point on the concentration scale where inhibition reaches its midpoint) in test [1] amounted to 1370 nM.
As for `CC[C@@H](Nc1c(-c2nc3cnc(N(C)C)cc3[nH]2)c(=O)[nH]c2cn(C)nc12)c1ncccn1` [Compound 21, (R)-6-(6-(dimethylamino)-1H-imidazo[4,5-c]pyridin-2-yl)-2-methyl-7-((1-(pyrimidin-2-yl)propyl)amino)-2H-pyrazolo[4,3-b]pyridin-5 (4H)-one], the IC50 in test [2] was 347 nM; in test [3], 1240 nM.
As to `COCC(Nc1c(-c2nc3ccc(OC)cc3[nH]2)c(=O)[nH]c2cn(C)nc12)c1ncccn1` (single isomer, unassigned) [Compound 13, (R*)-7-((2-methoxy-1-(pyrimidin-2-yl)ethyl)amino)-6-(6-methoxy-1H-benzo[d]imidazol-2-yl)-2-methyl-2H-pyrazolo[4,3-b]pyridin-5 (4H)-one], the 50% inhibitory concentration (IC50) was 375 nM in test [2] and 1830 nM in test [3].
For `COc1cnc2nc(-c3c(NC(c4ncccn4)C(C)C)c4nn(C)cc4[nH]c3=O)[nH]c2c1` (single isomer, unassigned) [Compound 39, (R*)-6-(6-methoxy-1H-imidazo[4,5-b]pyridin-2-yl)-2-methyl-7-((2-methyl-1-(pyrimidin-2-yl)propyl)amino)-2,4-dihydro-5H-pyrazolo[4,3-b]pyridin-5-one], the IC50 in test [2] is 48.6 nM; in test [3], 263 nM.
Compound `CCn1cc2[nH]c(=O)c(-c3nc4cc(OC)c(OC)cc4[nH]3)c(N[C@@H](C)c3cocn3)c2n1` (single isomer, unassigned) [Compound 5A, (S*)-6-(5,6-Dimethoxy-H-benzo[d]imidazol-2-yl)-2-ethyl-7-((1-(oxazol-4-yl)ethyl)-amino)-2H-pyrazolo[4,3-b]pyridin-5 (4H)-one] returned a concentration for half-maximal inhibition (IC50) in test [1] of 380 nM.
Regarding `CCC(Nc1c(-c2nc3cc(OC)c(OC)cc3[nH]2)c(=O)[nH]c2cn(C)nc12)c1ncccn1` (single isomer, unassigned) [Compound 43, (R*)-6-(5,6-dimethoxy-1H-benzo[d]imidazol-2-yl)-2-methyl-7-((1-(pyrimidin-2-yl)-propyl)amino)-2H-pyrazolo[4,3-b]pyridin-5 (4H)-one], the IC50 in test [2] came to 43.2 nM; in test [3], 138 nM.
Take `CCn1cc2[nH]c(=O)c(-c3nc4ccc(OC)cc4[nH]3)c(N[C@@H](C)c3cocn3)c2n1` (single isomer, unassigned) [Compound 33, (S*)-2-ethyl-6-(6-methoxy-1H-benzo[d]imidazol-2-yl)-7-((1-(oxazol-4-yl)ethyl)amino)-2H-pyrazolo[4,3-b]125yridine-5 (4H)-one]: the IC50 in test [2] is 4.16 nM; in test [3], 23.7 nM.
Take `COc1cc2nc(-c3c(NC(c4ncccn4)C4CC4)c4nn(C)cc4[nH]c3=O)[nH]c2cc1OC` (single isomer, unassigned) [Compound 47, (R*)-7-((cyclopropyl(pyrimidin-2-yl)methyl)amino)-6-(5,6-dimethoxy-1H-benzo[d]-imidazol-2-yl)-2-methyl-2H-pyrazolo[4,3-b]pyridin-5 (4H)-one]: the IC50 in test [2] was found to be 23.8 nM; in test [3] it was 99.6 nM.
Regarding `CC(C)[C@H](Nc1c(-c2nc3ccc(C(N)=O)cc3[nH]2)c(=O)[nH]c2cn(C)nc12)c1ncccn1` (single isomer, unassigned) [Compound 9, (S*)-2-(2-methyl-7-((2-methyl-1-(pyrimidin-2-yl)propyl)amino)-5-oxo-4,5-dihydro-2H-pyrazolo[4,3-b]pyridin-6-yl)-1H-benzo[d]imidazole-6-carboxamide], inhibition in test [1] was half-maximal at 2700 nM (IC50).
In test [1], `COC[C@@H](Nc1c(-c2nc3cc(OC)c(OC)cc3[nH]2)c(=O)[nH]c2cn(C)nc12)c1ncccn1` (single isomer, unassigned) [Compound 25, (S*)-6-(5,6-dimethoxy-H-benzo[d]imidazol-2-yl)-7-((2-methoxy-1-(pyrimidin-2-yl)-ethyl)amino)-2-methyl-2H-pyrazolo[4,3-b]pyridin-5 (4H)-one] returned an IC50 of 4550 nM.
As to `COCCOc1cc2[nH]c(-c3c(NC(c4ncccn4)C(C)C)c4nn(C)cc4[nH]c3=O)nc2cc1OC` (single isomer, unassigned) [Compound 35, (R*)-6-(5-methoxy-6-(2-methoxyethoxy)-1H-benzo[d]imidazol-2-yl)-2-methyl-7-((2-methyl-1-(pyrimidin-2-yl)propyl)amino)-2H-pyrazolo[4,3-b]pyridin-5 (4H)-one], the IC50 stood at 80.5 nM in test [2] and 298 nM in test [3].
For the compound `CCC(Nc1c(-c2nc3ccc(OCCOC)cc3[nH]2)c(=O)[nH]c2cn(C)nc12)c1ncccn1` (single isomer, unassigned) [Compound 49, (R*)-6-(6-(2-methoxyethoxy)-1H-benzo[d]imidazol-2-yl)-2-methyl-7-((1-(pyrimidin-2-yl)propyl)amino)-2H-pyrazolo[4,3-b]pyridin-5 (4H)-one], the half-inhibitory concentration (IC50) was found to be 59.5 nM in test [2] and 150 nM in test [3].
For `CCC(Nc1c(-c2nc3cnc(N(C)C)cc3[nH]2)c(=O)[nH]c2cn(C)nc12)c1ncccn1` (single isomer, unassigned) [Compound 14, (S*)-6-(6-(dimethylamino)-1H-imidazo[4,5-c]pyridin-2-yl)-2-methyl-7-((1-(pyrimidin-2-yl)propyl)amino)-2H-pyrazolo[4,3-b]pyridin-5 (4H)-one], the concentration for half-maximal inhibition (IC50) amounted to 11.8 nM in test [2] and 71.9 nM in test [3].
For `COCC(Nc1c(-c2nc3cc(OC)c(OC)cc3[nH]2)c(=O)[nH]c2cn(C)nc12)c1ncccn1` (single isomer, unassigned) [Compound 26, (R*)-6-(5,6-dimethoxy-1H-benzo[d]imidazol-2-yl)-7-((2-methoxy-1-(pyrimidin-2-yl)-ethyl)amino)-2-methyl-2H-pyrazolo[4,3-b]pyridin-5 (4H)-one], in that order: 218 nM and 790 nM.
For `COCC(Nc1c(-c2nc3cnc(OC)cc3[nH]2)c(=O)[nH]c2cn(C)nc12)c1ncccn1` (single isomer, unassigned) [Compound 20, (R*)-7-((2-methoxy-1-(pyrimidin-2-yl)ethyl)amino)-6-(6-methoxy-1H-imidazo[4,5-c]-pyridin-2-yl)-2-methyl-2H-pyrazolo[4,3-b]pyridin-5 (4H)-one], in that order: 4.67 nM and 22.4 nM.
On to `COCC(Nc1c(-c2nc3cnc(OC)cc3[nH]2)c(=O)[nH]c2cn(C)nc12)c1ncccn1` (single isomer, unassigned) [Compound 19, (S*)-7-((2-methoxy-1-(pyrimidin-2-yl)ethyl)amino)-6-(6-methoxy-1H-imidazo[4,5-c]-pyridin-2-yl)-2-methyl-2H-pyrazolo[4,3-b]pyridin-5 (4H)-one], for which the values for the half-inhibitory concentration (IC50) in test [2] and in test [3] were 243 nM and 1240 nM, respectively.
For `CCn1cc2[nH]c(=O)c(-c3nc4cc(OC)c(OC)cc4[nH]3)c(N[C@@H](C)c3ncccn3)c2n1` [Compound 37, (S)-6-(5,6-dimethoxy-1H-benzo[d]imidazol-2-yl)-2-ethyl-7-((1-(pyrimidin-2-yl)ethyl)-amino)-2H-pyrazolo[4,3-b]pyridin-5 (4H)-one], the results for the half-inhibitory concentration (IC50) in test [2] and in test [3] were 0.673 nM and 1.83 nM, respectively.
